Two substances from US20080044538A1, “Method For Pigment Solubilization, A pigment Composition And Its Use” (AKZO NOBEL N.V., priority 2004, published 2008) can be followed below.

The nature of this series: Solubilization of pigment from Lucantin Pink CWD into oil with water and surfactant; absorbance of filtered oil-phase. The following applies: type A, mix 3 g, surfactant 2 g, Tobis fish-oil 35 g; for Absorbance at 474 nm after 1.5 days in refrigerator and filtration: 0.200 ml diluted to 10 ml.

For the substance “sorbitan monooleate [Sorbitan ester monooleate]”, the “% recov. after 1.5 days in refrigerator and filtration” value was “(27.4) %”; the “Absorbance at 474 nm after 1.5 days in refrigerator and filtration” value was determined as 0.157.
Taken in the same sequence, the figures for Sorbitan monostearate were “(30.7) %” and 0.174.
